Experimental data taken from patent US20150224202A1, “FORMULATIONS AND USES FOR MICROPARTICLE DELIVERY OF ZINC PROTOPORPHYRINS” (priority 2014, published 2015).

Assays:
[1] = system: 3-day-old mouse pups; assay: Effect of light exposure on metalloporphyrin-treated newborn mice (chemical toxicity and phototoxicity); details: for chemical toxicity / phototoxicity, summary: 3.75 to 30.0 μmol/kg BW IP; for LD50 (50% lethal dose), exposed to light: fluorescent light (2 cool white, 1 blue tube) 3 hours
Experimental: FIG. 2 includes three panels ((A), (B), and (C)), showing the experimental setup for phototoxicity studies. 3-day-old pups (magnified in panel (A)) were given vehicle or Mp IP at doses ranging from 3.75 to 30 μmol/kg body weight (BW) and then exposed for 3 hours to fluorescent light consisting of 2 cool white and 1 blue tubes (as shown in panel (B)) emitting an irradiance of 35.0±1.0 μW/cm^2/nm as measured by a BiliBlanket II Meter (as depicted in panel (C)).
Effect of light exposure on metalloporphyrin-treated newborn mice. […] Pups were either kept in the dark (controls) or exposed to fluorescent light composed of two cool white tubes (F20T12cW) and one blue (TL20W/52) tube for 3 hours (FIG. 2).

[2] = system: heme oxygenase (HO); assay: HO activity inhibition in ZnBG-treated 3-day-old pups (FIG. 3); format: in vivo, mouse
[3] = system: newborn rhesus monkeys; assay: Hemolytic jaundice model, newborn rhesus monkeys treated with heat-damaged erythrocytes; format: in vivo, rhesus monkey
Excerpt: However, ZnPP has been troublesome to maintain in solution and is not orally absorbed, requiring parenteral administration.

[4] = after exposure to fluorescent light

Compound	chemical toxicity / phototoxicity, summary [1]	LD50 (50% lethal dose), exposed to light ([1]; IP, 3-day-old mouse pups) [µmol/kg]	LD50 (50% lethal dose), kept in the dark ([1]; IP, 3-day-old mouse pups, kept in the dark) [µmol/kg]	lethality under blue LED light ([1]; 30 μmol/kg BW, blue light-emitting diode (LED) light)	chemical toxicity, kept in the dark ([1]; 30 μmol/kg, kept in the dark)	doses at which gross histologic skin changes developed ([1]; 6 days after light exposure) [μmol/kg BW]	aspartate aminotransaminase (AST) levels [1, 4]	body weight after exposure to light [1, 4]	creatine kinase (CK-MB) levels [1, 4]	liver antioxidant capacities [1, 4]	inhibited HO activity ([2]; 3.75 μmol ZnBG/kg BW)	doses retaining maximal HO inhibitory potency without photosensitizing effects ([2]; FIG. 3) [μmol/kg BW]	tissue targeting of HO inhibition ([3]; 40 μmol/kg BW SC)	time to reduce carboxyhemoglobin and total bilirubin levels to baseline levels ([3]; 40 μmol/kg BW subcutaneously (SC)) [h]
chromium mesoporphyrin [CrMP]	has a chemical toxicity, but no phototoxicity	23.0	21.5											
zinc bis glycol porphyrin [ZnBG]	has no chemical toxicity, but a phototoxicity that is dependent on the light source	19.5		no lethality was observed	did not show any chemical toxicity	> 7.5	increases	significant weight loss	increases	decreases	up to 75%	< 3.75		
C=CC1=C(C)c2cc3[n-]c(cc4nc(cc5[n-]c(cc1n2)c(C)c5C=C)C(C)=C4CCC(=O)O)c(CCC(=O)O)c3C.[Zn+2] [ZnPP, Zinc protoporphyrin]													targeted to the liver and spleen, without affecting the kidney or brain	≤ 24
